Data published in the Kinase Knowledgebase extract (Sharma et al. 2016).

Key:
[1] = test system: EGFR (human), P00533 [delE746-A750]; settings: hcc827
[2] = test system: EGFR (Human), P00533 [T790M/L858R]; settings: h1975
Sequence of EGFR (Human), P00533 [T790M/L858R] (P00533 whole entry T790M/L858R, looked up): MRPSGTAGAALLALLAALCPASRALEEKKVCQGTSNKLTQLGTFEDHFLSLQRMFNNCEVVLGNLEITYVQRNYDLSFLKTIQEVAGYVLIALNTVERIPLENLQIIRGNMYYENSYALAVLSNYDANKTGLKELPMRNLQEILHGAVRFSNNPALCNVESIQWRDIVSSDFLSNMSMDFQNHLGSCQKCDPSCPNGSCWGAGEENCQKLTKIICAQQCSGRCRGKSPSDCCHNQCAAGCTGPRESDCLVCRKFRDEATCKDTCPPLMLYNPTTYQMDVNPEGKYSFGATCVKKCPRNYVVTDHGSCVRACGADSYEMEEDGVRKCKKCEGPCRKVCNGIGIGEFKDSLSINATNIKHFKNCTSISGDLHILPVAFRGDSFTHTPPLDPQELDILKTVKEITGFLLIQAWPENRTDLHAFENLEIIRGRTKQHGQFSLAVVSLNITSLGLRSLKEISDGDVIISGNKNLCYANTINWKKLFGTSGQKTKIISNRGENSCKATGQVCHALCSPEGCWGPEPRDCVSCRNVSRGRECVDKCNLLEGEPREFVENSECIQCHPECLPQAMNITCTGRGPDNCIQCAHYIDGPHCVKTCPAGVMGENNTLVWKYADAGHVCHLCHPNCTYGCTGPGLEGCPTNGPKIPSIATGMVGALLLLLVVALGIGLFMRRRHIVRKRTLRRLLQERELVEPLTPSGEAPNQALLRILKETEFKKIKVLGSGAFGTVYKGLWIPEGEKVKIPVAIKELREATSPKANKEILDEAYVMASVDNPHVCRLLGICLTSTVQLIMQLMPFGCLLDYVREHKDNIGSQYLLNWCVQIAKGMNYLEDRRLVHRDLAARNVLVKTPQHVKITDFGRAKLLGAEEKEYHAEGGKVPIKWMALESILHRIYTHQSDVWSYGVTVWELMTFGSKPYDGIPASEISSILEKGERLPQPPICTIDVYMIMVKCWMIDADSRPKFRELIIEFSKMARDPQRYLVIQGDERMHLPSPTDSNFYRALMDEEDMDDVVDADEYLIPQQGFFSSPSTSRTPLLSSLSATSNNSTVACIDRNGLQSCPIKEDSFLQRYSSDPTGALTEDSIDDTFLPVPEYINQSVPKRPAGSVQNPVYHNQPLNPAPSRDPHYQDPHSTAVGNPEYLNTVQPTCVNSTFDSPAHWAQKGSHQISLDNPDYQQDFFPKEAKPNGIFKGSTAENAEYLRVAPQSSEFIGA

Sequence of EGFR (human), P00533 [delE746-A750] (P00533 whole entry, looked up, stated change not applied): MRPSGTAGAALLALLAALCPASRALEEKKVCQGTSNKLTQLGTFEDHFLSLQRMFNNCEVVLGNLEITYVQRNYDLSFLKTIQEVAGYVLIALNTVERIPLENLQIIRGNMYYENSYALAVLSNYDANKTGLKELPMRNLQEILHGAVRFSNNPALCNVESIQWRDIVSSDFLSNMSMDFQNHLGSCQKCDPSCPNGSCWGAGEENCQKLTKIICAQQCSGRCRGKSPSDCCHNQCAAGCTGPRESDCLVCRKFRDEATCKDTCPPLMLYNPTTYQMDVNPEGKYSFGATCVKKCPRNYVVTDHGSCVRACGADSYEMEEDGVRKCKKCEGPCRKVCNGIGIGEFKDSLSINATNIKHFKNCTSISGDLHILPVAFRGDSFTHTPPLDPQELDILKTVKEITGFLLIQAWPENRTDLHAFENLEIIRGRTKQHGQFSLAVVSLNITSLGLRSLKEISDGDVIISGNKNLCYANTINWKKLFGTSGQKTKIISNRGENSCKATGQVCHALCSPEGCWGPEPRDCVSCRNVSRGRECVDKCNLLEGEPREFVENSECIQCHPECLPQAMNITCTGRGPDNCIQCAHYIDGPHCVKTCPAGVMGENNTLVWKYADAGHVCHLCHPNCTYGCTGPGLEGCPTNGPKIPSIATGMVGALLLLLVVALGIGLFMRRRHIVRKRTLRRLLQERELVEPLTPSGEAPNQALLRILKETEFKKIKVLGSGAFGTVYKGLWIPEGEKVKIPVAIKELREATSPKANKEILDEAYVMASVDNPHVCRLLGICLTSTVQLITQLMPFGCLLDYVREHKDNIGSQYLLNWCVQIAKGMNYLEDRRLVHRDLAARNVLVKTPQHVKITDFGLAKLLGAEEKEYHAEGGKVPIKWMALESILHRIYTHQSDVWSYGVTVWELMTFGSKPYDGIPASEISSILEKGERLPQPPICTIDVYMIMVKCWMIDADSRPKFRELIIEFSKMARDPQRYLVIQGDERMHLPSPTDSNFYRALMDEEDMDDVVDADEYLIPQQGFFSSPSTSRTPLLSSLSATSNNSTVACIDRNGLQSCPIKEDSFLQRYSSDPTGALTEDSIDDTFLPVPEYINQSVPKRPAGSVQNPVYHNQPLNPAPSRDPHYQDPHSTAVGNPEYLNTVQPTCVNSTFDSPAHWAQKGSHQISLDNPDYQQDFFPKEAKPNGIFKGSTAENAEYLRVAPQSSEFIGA

| Compound | GI50 [1] [nM] | GI50 [2] [nM] |
| --- | --- | --- |
| C=CC(=O)Nc1cccc(Oc2nc(Nc3cccc(OC)c3OC)ncc2Br)c1 | 500 to 1000 | 500 to 1000 |
| C=CC(=O)Nc1cccc(Nc2nc(Nc3ccccc3OC)ncc2Cl)c1 | 500 to 1000 |  |
| C=CC(=O)Nc1cccc(Nc2nc(Nc3ccc(OC)cc3OC)ncc2Br)c1 | 100 to 500 |  |
| C=CC(=O)Nc1cccc(Nc2nc(Nc3cccc(OC)c3OC)ncc2C(F)(F)F)c1 | 500 to 1000 |  |
| C=CC(=O)Nc1cccc(Nc2nc(Nc3ccc(OC)c(OC)c3OC)ncc2C(F)(F)F)c1 | 10 to 100 | 100 to 500 |
| C=CC(=O)Nc1cccc(Oc2nc(Nc3ccc(OC)c(OC)c3OC)ncc2Cl)c1 | 100 to 500 | 100 to 500 |
| C=CC(=O)Nc1cccc(Oc2nc(Nc3ccc(OC)cc3OC)ncc2Br)c1 |  | 500 to 1000 |
| C=CC(=O)Nc1cccc(Oc2nc(Nc3ccccc3OC)ncc2C(F)(F)F)c1 | 100 to 500 |  |
| C=CC(=O)Nc1cccc(Oc2nc(Nc3ccc(OC)c(OC)c3OC)ncc2C(F)(F)F)c1 | 100 to 500 | 100 to 500 |
| C=CC(=O)Nc1cccc(Oc2nc(Nc3ccccc3OC)ncc2F)c1 | 100 to 500 |  |
| C=CC(=O)Nc1cccc(Nc2nc(Nc3ccccc3OC)ncc2Br)c1 | 500 to 1000 | 500 to 1000 |
| C=CC(=O)Nc1cccc(Oc2nc(Nc3ccc(OC)cc3OC)ncc2C(F)(F)F)c1 | 100 to 500 | 100 to 500 |
| C=CC(=O)Nc1cccc(Nc2nc(Nc3ccccc3OC)ncc2C(F)(F)F)c1 | 10 to 100 | 100 to 500 |
| C=CC(=O)Nc1cccc(Nc2nc(Nc3ccc(OC)c(OC)c3OC)ncc2Br)c1 | 100 to 500 |  |
| C=CC(=O)Nc1cccc(Nc2nc(Nc3ccc(OC)cc3OC)ncc2Cl)c1 | 500 to 1000 |  |
